This series in a line: gradient 5% acetonitrile 3 min, to 50% in 2 min, to 85% in 15 min, held 3 min, 100 µL/min. The following applies: column: Zorbax Extend-C18 2.1 x 50 mm; eluents: water / acetonitrile, 0.1% formic acid. The gist of the method: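 The system's dead and dwell volumes were 40 μL and 900 μL, with a Zorbax Extend-C18 column (2.1 × 50 mm, 1.8 μm) run at 100 μL/min in water and acetonitrile containing 0.1% formic acid each. Pure standards were analyzed in mixtures of ~100 molecules by HPLC–quadrupole time-of-flight mass spectrometry in positive and negative ionization mode. Retention time was assigned from computationally picked, manually inspected adduct peaks.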
`Cc1cc(C)c(S(=O)(=O)Nc2cccc(-c3cn4cccc(C)c4n3)c2)cc1C` came in with an RP-LC retention time of 743 s.

Take `COc1ccc(N2C=C(C(=O)N3CCCC3)S(=O)(=O)c3ccc(Cl)cc32)cc1`: the RP-LC retention time stood at 856 s.

Take `COc1ccc(-c2nnc(N3CCC(C(=O)NC(C)c4ccccn4)CC3)o2)cc1` (centres undefined): the RP-LC retention time was 621 s.

`CCc1c(C(=O)O)nnn1-c1cccc(OC)c1` came in with an RP-LC retention time of 704 s.

With `N#CC(c1ccc(Cl)cc1)c1c(Cl)cc(N2NCC(=O)NC2=O)cc1Cl` (centres undefined), the RP-LC retention time came out at 1020 s.

In turn, `CCCn1cnnc1C1CCCCN1Cc1ccc(Br)o1` (centres undefined) gave an RP-LC retention time of 599 s.

The compound `O=C(c1cc(-c2ccncc2)n[nH]1)N1CCN(C(=O)C2CCCC2)CC1` came in with an RP-LC retention time of 588 s.

In the case of `CN(C)c1ncncc1N1CCC(C(=O)NCC2CCCO2)CC1` (centres undefined), the RP-LC retention time is 566 s.

For `COc1cc(C2CC(=O)c3c(C)nc(N4CCN(C)CC4)nc3C2)cc(OC)c1OC` (centres undefined), the RP-LC retention time came to 629 s.

`O=C(c1cccs1)N1CCC2(CC1)NC(=O)N(Cc1ccccc1Cl)C2=O` displayed an RP-LC retention time of 821 s.

Consider `CC1(C)CC(=O)C2=C(C1)N(CC1CCCO1)C(=O)C2(NC(=O)c1ccccc1F)C(F)(F)F` (centres undefined), for which the RP-LC retention time was determined as 908 s.

`O=C(Cn1c(=O)c2nncn2c2ncccc21)N1CCN(c2ccccc2)CC1`: the RP-LC retention time was determined as 674 s.

In the case of `Cc1nnc(-c2ccc3ccn(CC(=O)NCc4ccccc4)c3c2)o1`, the RP-LC retention time was 1010 s.

In turn, `Cc1cccc2nnc(N3CCCC(C(=O)N4CCN(C5CCCCC5)CC4)C3)n12` (centres undefined) registered an RP-LC retention time of 570 s.

As for `O=c1c2cc(-c3ccc(F)cc3)nn2cnn1Cc1nc(-c2ccc3c(c2)OCO3)no1`, the RP-LC retention time was 1220 s.

As to `CCn1cc2c3c(cccc31)CN(C(=O)Nc1ccc(C)cc1)CC2`, the RP-LC retention time came out at 978 s.

As to `Cc1c(N2C(=O)[C@@H]3[C@H](O)CCN3C2=O)ccc(C#N)c1Cl`, the RP-LC retention time was determined as 765 s.

In turn, `CC(C)c1ccc(NC(=O)C2CCN(S(C)(=O)=O)c3ccccc3O2)cc1` (centres undefined) came in with an RP-LC retention time of 930 s.

In turn, `O=C(CSc1ccc(-c2cccs2)nn1)N1CCN(c2ccccc2)CC1` came in with an RP-LC retention time of 848 s.

Consider `CCc1ccc(N2CC(c3noc(-c4ccccc4F)n3)CC2=O)cc1` (centres undefined), for which the RP-LC retention time amounted to 1100 s.

For the compound `COc1cc(=O)n2c(c1C(=O)Nc1ccc(Br)cc1)CCCC2`, the RP-LC retention time turned out to be 760 s.

As to `COCCC1CCN(C(=O)c2n[nH]c3ccccc23)CC1`, the RP-LC retention time was 709 s.

Turning to `CC(C)Cn1c(=O)c(C(=O)NCc2ccccc2)nc2cccnc21`, the RP-LC retention time stood at 915 s.

Take `CC(NC(=O)CCC(=O)N1CCc2c(c(C(=O)N3CCOCC3)nn2C)C1)c1ccccc1` (centres undefined): the RP-LC retention time is 632 s.

`O=C(Cn1c(=O)c(S(=O)(=O)c2ccccc2)cc2ccccc21)NCc1ccccc1Cl` gave an RP-LC retention time of 895 s.

Compound `Cc1ccc(NS(=O)(=O)c2cc(-c3[nH]ncc3C(=O)N3CCOCC3)oc2C)cc1C` returned an RP-LC retention time of 713 s.

For the compound `CN(Cc1cccnc1Oc1ccccc1)C(=O)c1cccn1C`, the RP-LC retention time worked out at 781 s.

`Cc1nc2cc(N3CCCC(C(=O)Nc4ccc(N5CCOCC5)cc4)C3)cnc2nc1C` (centres undefined) came in with an RP-LC retention time of 658 s.

For the compound `Cc1nnc2c(NC(=O)c3cc(F)ccc3F)cccn12`, the RP-LC retention time turned out to be 705 s.

In turn, `Cc1ncc2c(n1)C[C@@H]1CC[C@H]2N1S(=O)(=O)c1ccc(F)cc1` displayed an RP-LC retention time of 720 s.

Take `Cc1ccc(C)c(C(=O)N2CCc3nc(-c4ccc(F)cc4)ncc3C2)c1`: the RP-LC retention time was 1060 s.

`Nc1ccc2c(c1)CN1C(=O)c3ccccc3C1=N2`: the RP-LC retention time turned out to be 639 s.

Compound `Cc1cnn(Cc2nc(-c3ccc(NC(=O)COc4ccccc4)cc3)oc2C)c1` displayed an RP-LC retention time of 869 s.

Consider `Cn1cnc(S(=O)(=O)NCCC2CCN(C(=O)c3ccccc3)CC2)c1`, for which the RP-LC retention time came to 653 s.

Take `CCOc1ccc2nc(NC(=O)C3CCN(S(=O)(=O)c4cn(C(C)C)cn4)CC3)sc2c1`: the RP-LC retention time stood at 829 s.

Compound `CN(Cc1ccc(Cl)cc1)Cc1cc(=O)n2ccccc2n1` yielded an RP-LC retention time of 602 s.

As for `CN(C)C(=O)C1CCN(c2nc3ccc(-c4cccc(F)c4)nc3s2)CC1`, the RP-LC retention time was 905 s.

In turn, `Cc1ccc(-n2cc3c(N4CCCC(C(=O)NCCC5=CCCCC5)C4)ncnc3n2)cc1` (centres undefined) showed an RP-LC retention time of 792 s.

The compound `Cc1sc(NC(=O)C2CCCCC2)nc1-c1ccc2c(c1)NC(=O)C(C)O2` (centres undefined) displayed an RP-LC retention time of 940 s.

`Cc1ccccc1CNC(=O)c1ccc2c(c1)Sc1ncccc1C(=O)N2C` came in with an RP-LC retention time of 789 s.

In turn, `CC(C)NC(=O)c1ccc(Nc2c(-c3ccccc3)nc3cnccn23)cc1` returned an RP-LC retention time of 702 s.

Regarding `COc1ccccc1NC(=O)Cn1cnc2nc(N3CCCC(C(=O)NC(C)C)C3)sc2c1=O` (centres undefined), the RP-LC retention time amounted to 688 s.

In the case of `CCC(C(=O)NCC1CCCO1)n1c2ccccc2c2cnn(C)c(=O)c21` (centres undefined), the RP-LC retention time came out at 768 s.

Take `O=C1CC(c2noc(-c3cc(F)ccc3F)n2)CN1c1ccc(F)cc1` (centres undefined): the RP-LC retention time was found to be 944 s.

As for `Cc1cnn(Cc2nc(-c3ccc(NC(=O)c4cc(C)on4)cc3)oc2C)c1`, the RP-LC retention time turned out to be 876 s.

Regarding `COc1ccc(C2Cn3cnc(C(=O)N4CCC(C(=O)NC5CC5)CC4)c3CO2)cc1` (centres undefined), the RP-LC retention time came to 648 s.

Compound `CC1(C(=O)NCc2ccccc2)Cn2cnc(C(=O)NCCc3ccccc3)c2C(=O)N1C1CC1` (centres undefined) showed an RP-LC retention time of 754 s.

As to `COc1ccc(Cl)cc1NC(=O)C1Oc2ccccc2NC1=O` (centres undefined), the RP-LC retention time turned out to be 873 s.

Regarding `CC(C)n1cnc2cc(CNC(=O)c3cc(F)ccc3Cl)ccc21`, the RP-LC retention time came to 638 s.

As for `Cc1ccc(CN2C(=O)NC3(CCN(C(=O)COc4ccc(C)cc4)CC3)C2=O)cc1`, the RP-LC retention time is 876 s.

In the case of `CC1=CC(=O)CC(C)(C)C1(O)/C=C/C(C)=C\C(=O)O` (centres undefined), the RP-LC retention time was determined as 683 s.

`Cc1noc(C2CN(C(=O)Nc3ccccc3)CC23CCOCC3)n1` (centres undefined) showed an RP-LC retention time of 650 s.

As for `CCN(CC)C(=O)N1CC(n2cc(C(=O)N3CCOCC3)nn2)C1`, the RP-LC retention time is 612 s.

For the compound `O=C(NC1CC1)c1nc(C(=O)N2CCN(c3ccccn3)CC2)cs1`, the RP-LC retention time is 559 s.

With `CCN1C(=O)COc2ccc(-c3noc(-c4ccc(OC)c(OC)c4)n3)cc21`, the RP-LC retention time worked out at 1020 s.

On to `CCc1nc2cc(N3CCCC(C(=O)NCC(C)C)C3)cnc2nc1CC` (centres undefined), for which the RP-LC retention time was 790 s.

With `Cn1nccc1C(=O)N1CCCCCCNC(=O)[C@@H]2CCCC[C@@H]21`, the RP-LC retention time was 705 s.

Turning to `Cc1nc(-c2cc(S(=O)(=O)Nc3cccc(Br)c3)c(C)s2)cs1`, the RP-LC retention time came out at 1050 s.

Take `Cc1ccc(-n2ncc3c(=O)n(Cc4nc(-c5ccc(F)c(Cl)c5)no4)cnc32)cc1`: the RP-LC retention time came out at 1190 s.
